From US20090023718A1 (Aton Pharma, Inc., priority 2003, published 2009) come the findings set out here.

As usually defined, the IC50 is the point on the concentration scale where inhibition reaches its midpoint.

For the first experiment, the system named is murine erythroleukemia cell line SC9. The experiment is described as follows: MTS assay (Cell Titer 96 Aqueous One Solution Cell Proliferation Assay). The format is cell-based. The note with it: Mus musculus; SC9 cells, 48 hours incubation with increasing concentrations, inhibition of proliferation; mean ± spread (N). As to the method: The novel compounds of the present invention were tested for their ability to inhibit proliferation of the murine erythroleukemia cell line SC9.
The MTS assay, also referred to as the Cell Titer 96 Aqueous One Solution Cell Proliferation Assay, is a colorimetric method for determining the number of viable cells in proliferation, cytotoxicity or chemosensitivity assays. The MTS reagent contains a novel tetrazolium compound [3-(4,5-dimethylthiazol-2-yl)-5-(3-carboxymethoxyphenyl)-2-(4-sulfophenyl)-2H-tetrazolium, inner salt] and electron coupling reagent (phenazine ethosulfate; PES). Murine erythroleukemia cells (SC-9) were incubated with vehicle or increasing concentrations of compound for 48 hours. Cell proliferation was quantitated by adding a small amount of the MTS reagent directly to culture wells, incubating for 1-4 hours and then recording the absorbance at 490 nm with a 96-well plate reader. The quantity of formazan product, as measured by […] absorbance, is directly proportional to the number of living cells in culture.
A general note: Tetrazolium assays rely on reduction of a dye to a coloured formazan, in cell work by metabolically active cells.
For `O=C(CCCCCC(=O)N(CC(=O)Nc1nc2ccccc2s1)CC(=O)Nc1nc2ccccc2s1)NO` [Compound 3, Heptanedioic acid bis-(benzothiazol-2-ylcarbamoylmethyl)-amide hydroxyamide], it took 50 ± 27.7 nM to reach half-maximal inhibition (IC50).

`O=C(CCCCCC(=O)N(CC(=O)Nc1ccc(F)cc1)CC(=O)Nc1ccc(F)cc1)NO` [Compound 4, Heptanedioic acid bis-[(4-fluoro-phenylcarbamoyl)-methyl]-amide hydroxyamide] had an IC50 of 128 nM.

In turn, `O=C(CCCCCC(=O)N(CC(=O)Nc1ccccc1)CC(=O)Nc1ccccc1)NO` [Compound 6, Heptanedioic acid bis-phenylcarbamoylmethyl-amide hydroxyamide] displayed an IC50 of 304 ± 83.4 nM.

The compound `O=C(CCCCCC(=O)N(CC(=O)Nc1ccccc1)CC(=O)Nc1cccc2cccnc12)NO` [Compound 7, Heptanedioic acid hydroxyamide phenylcarbamoylmethyl-(quinolin-8-ylcarbamoylmethyl)-amide] registered an IC50 of 46 ± 10.9 nM.

Regarding `O=C(CCCCCC(=O)N(CC(=O)NCCc1ccccc1)CC(=O)Nc1ccccc1)NO` [Compound 8, Heptanedioic acid hydroxyamide (phenethylcarbamoyl-methyl)-phenylcarbamoylmethyl-amide], the IC50 is 852 nM.

The target in another experiment is T1, histone deacetylase, subtype 1 (HDAC1) (Homo sapiens, UniProt Q13547).
T1 construct: Flag; made in house
T1 sequence (Q13547 whole entry): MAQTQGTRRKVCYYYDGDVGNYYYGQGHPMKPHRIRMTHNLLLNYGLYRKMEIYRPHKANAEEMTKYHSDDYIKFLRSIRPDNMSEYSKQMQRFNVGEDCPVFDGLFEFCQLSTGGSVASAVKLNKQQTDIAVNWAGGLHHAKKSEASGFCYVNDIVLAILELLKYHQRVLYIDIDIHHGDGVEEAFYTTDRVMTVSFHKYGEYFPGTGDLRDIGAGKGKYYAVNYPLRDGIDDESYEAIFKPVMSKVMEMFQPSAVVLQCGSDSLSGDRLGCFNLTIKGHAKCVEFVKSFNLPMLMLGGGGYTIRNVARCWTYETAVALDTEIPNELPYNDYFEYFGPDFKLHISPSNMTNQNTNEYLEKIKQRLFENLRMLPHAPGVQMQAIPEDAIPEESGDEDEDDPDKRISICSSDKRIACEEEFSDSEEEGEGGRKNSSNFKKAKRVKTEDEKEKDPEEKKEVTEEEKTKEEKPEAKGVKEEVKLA
The experiment is described as follows: HDAC1-Flag assay (in vitro fluorescent deacetylation assay). It counts as biochemical. Conditions: Table 1, compounds of formula II; epitope-tagged human HDAC1 complex, substrate at Km; mean ± spread (N); read-out: HDAC Inhibition (IC50) nm. As to the method:
Novel compounds were tested for their ability to inhibit histone deacetylase, subtype 1 (HDAC1) using an in vitro deacetylation assay. The enzyme source for this assay was an epitope-tagged human HDAC1 complex immuno-purified from stably expressing mammalian cells. The substrate consisted of a commercial product containing an acetylated lysine side chain (BIOMOL Research Laboratories, Inc., Plymouth Meeting, Pa.). Upon deacetylation of the substrate by incubation with the purified HDAC1 complex, a fluorophore is produced that is directly proportional to the level of deacetylation.
On to `O=C(CCCCCC(=O)N(CC(=O)Nc1nc2ccccc2s1)CC(=O)Nc1nc2ccccc2s1)NO` [Compound 3, Heptanedioic acid bis-(benzothiazol-2-ylcarbamoylmethyl)-amide hydroxyamide], for which the 50% inhibitory concentration (IC50) stood at 9.5 ± 4.9 nM.

In the case of `O=C(CCCCCC(=O)N(CC(=O)Nc1ccc(F)cc1)CC(=O)Nc1ccc(F)cc1)NO` [Compound 4, Heptanedioic acid bis-[(4-fluoro-phenylcarbamoyl)-methyl]-amide hydroxyamide], the IC50 came to 16 nM.

Turning to `O=C(CCCCCC(=O)N(CC(=O)Nc1ccccc1)CC(=O)Nc1ccccc1)NO` [Compound 6, Heptanedioic acid bis-phenylcarbamoylmethyl-amide hydroxyamide], the IC50 was 20.5 ± 0.7 nM.

For the compound `O=C(CCCCCC(=O)N(CC(=O)Nc1ccccc1)CC(=O)Nc1cccc2cccnc12)NO` [Compound 7, Heptanedioic acid hydroxyamide phenylcarbamoylmethyl-(quinolin-8-ylcarbamoylmethyl)-amide], the IC50 was 25 ± 21.2 nM.

Regarding `O=C(CCCCCC(=O)N(CC(=O)NCCc1ccccc1)CC(=O)Nc1ccccc1)NO` [Compound 8, Heptanedioic acid hydroxyamide (phenethylcarbamoyl-methyl)-phenylcarbamoylmethyl-amide], the IC50 worked out at 26 ± 5.6 nM.

As for “Hexanedioic acid bis-(quinolin-8-ylcarbamoylmethyl)-amide hydroxyamide [Compound 15]”, the IC50 was found to be 82 ± 9.8 nM.

Still in this experiment, the particulars now being: Table 2, compounds of formula III; epitope-tagged human HDAC1 complex, substrate at Km; mean ± spread (N); read-out: HDAC Inhibition (IC50) nm.
Turning to `O=C(CCCCCN(CC(=O)N1CCN(c2ccccc2)CC1)CC(=O)N1CCN(c2ccccc2)CC1)NO` [Compound 45, 6-{Bis-[2-oxo-2-(4-phenyl-piperazin-1-yl)-ethyl]-amino}-hexanoic acid hydroxyamide], the IC50 amounted to 140 ± 16.2 nM.

As to `O=C(CCCCCCCN(CC(=O)NCc1ccccc1)CC(=O)NCc1ccccc1)NO` [Compound 47, 8-[Bis-(benzylcarbamoyl-methyl)-amino]-octanoic acid hydroxyamide], the IC50 turned out to be 181 ± 23.3 nM.

As to `O=C(CCCCCN(CC(=O)NCc1ccccc1)CC(=O)NCc1ccccc1)NO` [Compound 48, 6-[Bis-(benzylcarbamoyl-methyl)-amino]-hexanoic acid hydroxyamide], the 50% inhibitory concentration (IC50) stood at 187 ± 10.6 nM.

In the case of `O=C(CCCCCCCN(CC(=O)NCCc1ccccc1)CC(=O)NCCc1ccccc1)NO` [Compound 49, 8-[Bis-(phenethylcarbamoyl-methyl)-amino]-octanoic acid hydroxyamide], the IC50 worked out at 191 ± 20.5 nM.

As for `O=C(CCCCCN(CC(=O)NC1CCCCC1)CC(=O)NC1CCCCC1)NO` [Compound 50, 6-(Bis-cyclohexylcarbamoylmethyl-amino)-hexanoic acid hydroxyamide], the IC50 was 267 ± 32.5 nM.

For the compound `CC(C)CNC(=O)CN(CCCCCC(=O)NO)CC(=O)NCC(C)C` [Compound 51, 6-[Bis-(isobutylcarbamoyl-methyl)-amino]-hexanoic acid hydroxyamide], the IC50 stood at 288 ± 53 nM.

Turning to `O=C(CCCCCN(CC(=O)NCC1CCCCC1)CC(=O)NCC1CCCCC1)NO` [Compound 52, 6-{Bis-[(cyclohexylmethyl-carbamoyl)-methyl]-amino}-hexanoic acid hydroxyamide], the IC50 amounted to 311 ± 24.7 nM.

For `O=C(CCCCCN(CC(=O)N1CCC(Cc2ccccc2)CC1)CC(=O)N1CCC(Cc2ccccc2)CC1)NO` [Compound 53, 6-{Bis-[2-(4-benzyl-piperidin-1-yl)-2-oxo-ethyl]-amino}-hexanoic acid hydroxyamide], the IC50 is 873 ± 57.9 nM.

For `O=C(CCCCN(CC(=O)NCCc1ccccc1)CC(=O)NCCc1ccccc1)NO` [Compound 54, 5-[Bis-(phenethylcarbamoyl-methyl)-amino]-pentanoic acid hydroxyamide], the IC50 was 886 ± 20.5 nM.

Regarding `O=C(CCCCN(CC(=O)NCc1ccccc1)CC(=O)NCc1ccccc1)NO` [Compound 55, 5-[Bis-(benzylcarbamoyl-methyl)-amino]-pentanoic acid hydroxyamide], the IC50 came out at 907 ± 60.8 nM.

Regarding `O=C(CCCCCN(CC(=O)N1CCCCC1)CC(=O)N1CCCCC1)NO` [Compound 56, 6-[Bis-(2-oxo-2-piperidin-1-yl-ethyl)-amino]-hexanoic acid hydroxyamide], the IC50 amounted to 2080 ± 383 nM.

With `O=C(CCCCCN(CC(=O)N1CCOCC1)CC(=O)N1CCOCC1)NO` [Compound 57, 6-[Bis-(2-morpholin-4-yl-2-oxo-ethyl)-amino]-hexanoic acid hydroxyamide], the IC50 was 2280 ± 889 nM.

Staying with this experiment, now noted: Table 3, compounds of formula IV; epitope-tagged human HDAC1 complex, substrate at Km; mean ± spread (N); read-out: HDAC Inhibition (IC50) nm.
Regarding `O=C(CCCCC(=O)N(Cc1ccccc1)Cc1ccccc1)NO` [Compound 58], the IC50 was 899 ± 243 nM.

On to `O=C(CCCCC(=O)N(CCc1ccccc1)Cc1ccccc1)NO` [Compound 59], for which the IC50 was 2590 ± 807 nM.

Regarding `O=C(CCCCCCC(=O)N(CCc1c[nH]c2ccccc12)Cc1ccc(Br)cc1)NO` [Compound 60], the 50% inhibitory concentration (IC50) stood at 387 ± 80.6 nM.

With `O=C(CCCCCC(=O)N(CCc1c[nH]c2ccccc12)Cc1ccc(Br)cc1)NO` [Compound 61], the IC50 is 162 ± 88.3 nM.

Turning to `O=C(CCCCCCC(=O)N(Cc1ccccc1)Cc1ccccc1)NO` [Compound 62], the IC50 was determined as 462 ± 51.6 nM.

Turning to `O=C(CCCCCCC(=O)N(CCc1ccccc1)Cc1ccccc1)NO` [Compound 63], the IC50 was determined as 591 ± 46.6 nM.

Consider `O=C(CCCCCCCCC(=O)N(CCc1ccccc1)Cc1ccccc1)NO` [Compound 64], for which the IC50 is 434 ± 2.8 nM.

Take `O=C(CCCCCCC(=O)N1CCN(C(=O)OCc2ccccc2)CC1)NO` [Compound 65]: the IC50 was 301 ± 21.2 nM.

As to `O=C(CCC(=O)N1CCN(c2ccccc2)CC1)NO` [Compound 66], the IC50 was 44300 nM.

With `O=C(CCC(=O)N1CCN(c2ccc(Cl)cc2)CC1)NO` [Compound 67], the IC50 worked out at 16200 nM.

As for `O=C(CCC(=O)N1CCN(c2ccccc2Cl)CC1)NO` [Compound 68], the IC50 is 73300 nM.

`O=C(CCC(=O)N1CCN(c2cccc(Cl)c2)CC1)NO` [Compound 69]: the IC50 was determined as 13000 nM.

In the case of `CC(=O)c1ccc(N2CCN(C(=O)CCC(=O)NO)CC2)cc1` [Compound 70], the half-maximal inhibitory concentration (IC50) turned out to be 24000 nM.

Turning to `O=C(CCCC(=O)N1CCN(c2ccccc2)CC1)NO` [Compound 71, 5-Oxo-5-(4-phenyl-piperazin-1-yl)-pentanoic acid hydroxyamide], the IC50 stood at 1220 ± 31.1 nM.

Regarding `O=C(CCCC(=O)N1CCN(c2cccc(Cl)c2)CC1)NO` [Compound 72, 5-[4-(3-Chloro-phenyl)-piperazin-1-yl]-5-oxo-pentanoic acid hydroxyamide], the IC50 was 474 ± 36 nM.

`O=C(CCCC(=O)N1CCN(c2ccc(Cl)cc2)CC1)NO` [Compound 73, 5-[4-(4-Chloro-phenyl)-piperazin-1-yl]-5-oxo-pentanoic acid hydroxyamide]: the IC50 amounted to 988 ± 93.3 nM.

Consider `O=C(CCCCC(=O)N1CCN(c2ccccc2)CC1)NO` [Compound 74, 6-Oxo-6-(4-phenyl-piperazin-1-yl)-hexanoic acid hydroxyamide], for which the IC50 was determined as 1350 ± 106 nM.

Regarding `O=C(CCCCC(=O)N1CCN(c2cccc(Cl)c2)CC1)NO` [Compound 75, 6-[4-(3-Chloro-phenyl)-piperazin-1-yl]-6-oxo-hexanoic acid hydroxyamide], the IC50 worked out at 621 ± 94 nM.

For `O=C(CCCCC(=O)N1CCN(c2ccc(Cl)cc2)CC1)NO` [Compound 76, 6-[4-(4-Chloro-phenyl)-piperazin-1-yl]-6-oxo-hexanoic acid hydroxyamide], the IC50 was 475 ± 9.1 nM.

Take `O=C(CCCCCCC(=O)N1CCN(c2cccc(Cl)c2)CC1)NO` [Compound 77, 8-[4-(3-Chloro-phenyl)-piperazin-1-yl]-8-oxo-octanoic acid hydroxyamide]: the IC50 came to 39 ± 2.8 nM.

For the compound `O=C(CCCCCCCCC(=O)N1CCN(c2ccc(Cl)cc2)CC1)NO` [Compound 79, 10-[4-(4-Chloro-phenyl)-piperazin-1-yl]-10-oxo-decanoic acid hydroxyamide], the IC50 amounted to 169 ± 30.4 nM.

Still in this experiment, the particulars now being: Table 4, compounds of formula V; epitope-tagged human HDAC1 complex, substrate at Km; mean ± spread (N); read-out: HDAC Inhibition (IC50) nm.
As for `O=C(CCCCCCN(Cc1ccccc1)Cc1ccccc1)NO` [Compound 80], the IC50 worked out at 374 ± 39.5 nM.

For the compound `O=C(CCCCCCN(CCc1c[nH]c2ccccc12)Cc1ccc(Br)cc1)NO` [Compound 82], the IC50 amounted to 188 ± 72.8 nM.

On to `O=C(CCCCCCCN(CCc1c[nH]c2ccccc12)Cc1ccc(Br)cc1)NO` [Compound 83], for which the concentration for half-maximal inhibition (IC50) came out at 204 ± 58.6 nM.

Staying with this experiment, now noted: Table 5, other HDAC inhibitors of formula I; epitope-tagged human HDAC1 complex, substrate at Km; mean ± spread (N); read-out: HDAC Inhibition (IC50) nm.
With `CN(CCCCCC(=O)NO)CC(=O)NCc1ccccc1` [Compound 85], the IC50 amounted to 571 ± 52.3 nM.

For the compound `CN(CCCCCC(=O)NO)CC(=O)NCCc1ccccc1` [Compound 86], the IC50 was 247 ± 33.2 nM.
